In paper PMC5218480 (PLoS ONE, 2017):

Test system: MV-4-11 cells
Test: Gene expression microarray analysis (Affymetrix PrimeView) and GSEA
Type: cell-based, human
Set-up: RFU PODN (11730768_x_at) / Fold change /veh PODN (11730768_x_at) / RFU LINC00158 (11744669_a_at) / Fold change /veh LINC00158 (11744669_a_at) / RFU DUSP10 (11751237_a_at) / Fold change /veh DUSP10 (11751237_a_at) / RFU ID3 (11757404_x_at) / Fold change /veh ID3 (11757404_x_at) / RFU PLEKHG5 (11737974_s_at) / Fold change /veh PLEKHG5 (11737974_s_at) / RFU LRRC4B (11730491_at) / Fold change /veh LRRC4B (11730491_at) / RFU GIMAP4 (11747438_a_at) / Fold change /veh GIMAP4 (11747438_a_at) / RFU KRT8 (11758183_x_at) / Fold change /veh KRT8 (11758183_x_at) / RFU CNN1 (11734310_a_at) / Fold change /veh CNN1 (11734310_a_at) / RFU VPS37D (11726825_at) / Fold change /veh VPS37D (11726825_at) / RFU C10orf10 (11716522_x_at) / Fold change /veh C10orf10 (11716522_x_at) / RFU KIR2DL2 /// KIR2DL4 /// KIR2DL5A /// KIR2DL5B /// KIR2DS1 /// KIR2DS2 /// KIR2DS3 /// KIR2DS4 /// KIR3DL3 /// KIR3DL3 /// KIR3DS1 (11738374_at) / Fold change /veh KIR2DL2 /// KIR2DL4 /// KIR2DL5A /// KIR2DL5B /// KIR2DS1 /// KIR2DS2 /// KIR2DS3 /// KIR2DS4 /// KIR3DL3 /// KIR3DL3 /// KIR3DS1 (11738374_at) / RFU C1QL1 (11718748_at) / Fold change /veh C1QL1 (11718748_at) / RFU TMPRSS4 (11747572_a_at) / Fold change /veh TMPRSS4 (11747572_a_at) / RFU HAMP (11756126_x_at) / Fold change /veh HAMP (11756126_x_at) / RFU RNFT2 (11725882_a_at) / Fold change /veh RNFT2 (11725882_a_at) / RFU NR4A2 (11747474_a_at) / Fold change /veh NR4A2 (11747474_a_at) / RFU ABCC12 (11746883_a_at) / Fold change /veh ABCC12 (11746883_a_at) / RFU TMEM136 (11760407_x_at) / Fold change /veh TMEM136 (11760407_x_at) / RFU CLDN22 /// WWC2 (11732394_at) / Fold change /veh CLDN22 /// WWC2 (11732394_at) / RFU HLA-DPB1 (11760878_x_at) / Fold change /veh HLA-DPB1 (11760878_x_at) / RFU SPINT1 (11716480_a_at) / Fold change /veh SPINT1 (11716480_a_at) / RFU GAP43 (11754022_s_at) / Fold change /veh GAP43 (11754022_s_at) / RFU A4GNT (11735810_at) / Fold change /veh A4GNT (11735810_at) / RFU PRB3 (11715151_x_at) / Fold change /veh PRB3 (11715151_x_at) / RFU TUBB4B (11761932_at) / Fold change /veh TUBB4B (11761932_at) / RFU CAPN14 (11732068_a_at) / Fold change /veh CAPN14 (11732068_a_at) / RFU TMCC2 (11721928_a_at) / Fold change /veh TMCC2 (11721928_a_at) / RFU IRGQ (11745062_a_at) / Fold change /veh IRGQ (11745062_a_at) / RFU FAM174B (11720279_a_at) / Fold change /veh FAM174B (11720279_a_at) / RFU TMPRSS4 (11748680_a_at) / Fold change /veh TMPRSS4 (11748680_a_at) / RFU FAM212B (11763350_a_at) / Fold change /veh FAM212B (11763350_a_at) / RFU PLEKHG5 (11743358_a_at) / Fold change /veh PLEKHG5 (11743358_a_at) / RFU ZSCAN30 (11745921_a_at) / Fold change /veh ZSCAN30 (11745921_a_at) / RFU CMKLR1 (11741424_a_at) / Fold change /veh CMKLR1 (11741424_a_at) / RFU LOC101060620 /// MAPK8IP1 (11723275_at) / Fold change /veh LOC101060620 /// MAPK8IP1 (11723275_at) / RFU SPTSSB (11747773_x_at) / Fold change /veh SPTSSB (11747773_x_at) / RFU PRSS12 (11739890_at) / Fold change /veh PRSS12 (11739890_at) / RFU BIN1 (11741810_x_at) / Fold change /veh BIN1 (11741810_x_at) / RFU WNT11 (11732464_a_at) / Fold change /veh WNT11 (11732464_a_at) / RFU C10orf10 (11716521_a_at) / Fold change /veh C10orf10 (11716521_a_at) / RFU C5orf56 (11738089_at) / Fold change /veh C5orf56 (11738089_at) / RFU CYB561 (11721691_x_at) / Fold change /veh CYB561 (11721691_x_at) / RFU ANKRD19P (11752326_a_at) / Fold change /veh ANKRD19P (11752326_a_at) / RFU OR2T12 /// OR2T33 /// OR2T8 (11738714_s_at) / Fold change /veh OR2T12 /// OR2T33 /// OR2T8 (11738714_s_at) / RFU VCAN (11748164_a_at) / Fold change /veh VCAN (11748164_a_at) / RFU JSRP1 (11732532_at) / Fold change /veh JSRP1 (11732532_at) / RFU KRTAP10-11 (11738290_x_at) / Fold change /veh KRTAP10-11 (11738290_x_at) / RFU MYO3A (11730013_a_at) / Fold change /veh MYO3A (11730013_a_at) / RFU EBF3 (11725865_a_at) / Fold change /veh EBF3 (11725865_a_at) / RFU CAMK2N1 (11719241_x_at) / Fold change /veh CAMK2N1 (11719241_x_at) / RFU C5orf56 (11738088_a_at) / Fold change /veh C5orf56 (11738088_a_at) / RFU OLFML3 (11715873_a_at) / Fold change /veh OLFML3 (11715873_a_at) / RFU LOC100653217 /// NTM (11731650_a_at) / Fold change /veh LOC100653217 /// NTM (11731650_a_at) / RFU MAPK11 (11762145_a_at) / Fold change /veh MAPK11 (11762145_a_at) / RFU FIZ1 (11724087_x_at) / Fold change /veh FIZ1 (11724087_x_at) / RFU OASL (11726364_x_at) / Fold change /veh OASL (11726364_x_at) / RFU SOX15 (11748057_x_at) / Fold change /veh SOX15 (11748057_x_at) / RFU CD79A (11719716_a_at) / Fold change /veh CD79A (11719716_a_at) / RFU HIST1H1D (11736915_at) / Fold change /veh HIST1H1D (11736915_at) / RFU CASKIN2 (11723855_a_at) / Fold change /veh CASKIN2 (11723855_a_at) / RFU LOC730098 (11760151_x_at) / Fold change /veh LOC730098 (11760151_x_at) / RFU OR4N2 (11742367_at) / Fold change /veh OR4N2 (11742367_at) / RFU PRRT2 (11749266_a_at) / Fold change /veh PRRT2 (11749266_a_at) / RFU SNX32 (11753110_a_at) / Fold change /veh SNX32 (11753110_a_at) / RFU CDHR5 (11726645_a_at) / Fold change /veh CDHR5 (11726645_a_at) / RFU RCAN1 (11760418_a_at) / Fold change /veh RCAN1 (11760418_a_at) / RFU FAM167A (11723789_a_at) / Fold change /veh FAM167A (11723789_a_at) / RFU FAM26E (11764081_at) / Fold change /veh FAM26E (11764081_at) / RFU ISYNA1 (11749810_s_at) / Fold change /veh ISYNA1 (11749810_s_at) / RFU ACY1 (11761880_at) / Fold change /veh ACY1 (11761880_at) / RFU 11764098_at / Fold change /veh 11764098_at / RFU SAMD14 (11745864_x_at) / Fold change /veh SAMD14 (11745864_x_at) / RFU NPB (11741838_a_at) / Fold change /veh NPB (11741838_a_at) / RFU TMPRSS6 (11731388_a_at) / Fold change /veh TMPRSS6 (11731388_a_at) / RFU KRTAP10-2 (11738614_at) / Fold change /veh KRTAP10-2 (11738614_at) / RFU ARHGAP8 /// PRR5-ARHGAP8 (11727945_x_at) / Fold change /veh ARHGAP8 /// PRR5-ARHGAP8 (11727945_x_at) / RFU KRTAP5-7 /// NADSYN1 (11734609_at) / Fold change /veh KRTAP5-7 /// NADSYN1 (11734609_at) / RFU RASL12 (11751679_a_at) / Fold change /veh RASL12 (11751679_a_at) / RFU CDKN2B (11736163_a_at) / Fold change /veh CDKN2B (11736163_a_at) / RFU PRF1 (11729649_at) / Fold change /veh PRF1 (11729649_at) / RFU, ZNF638 /// ZNF638-IT1 / Fold change vs veh, ZNF638 /// ZNF638-IT1 / RFU, PANK3 / Fold change vs veh, PANK3 / RFU, SH3YL1 / Fold change vs veh, SH3YL1 / RFU, ZEB2 / Fold change vs veh, ZEB2 / RFU, NRIP1 / Fold change vs veh, NRIP1 / RFU, PTTG1IP / Fold change vs veh, PTTG1IP / RFU, CAPN2 / Fold change vs veh, CAPN2 / RFU, MED14 / Fold change vs veh, MED14 / RFU, SNORA58 / Fold change vs veh, SNORA58 / RFU, C1orf63 / Fold change vs veh, C1orf63 / RFU, LRRFIP1 / Fold change vs veh, LRRFIP1 / RFU, NDUFAF7 / Fold change vs veh, NDUFAF7 / RFU, SLC12A2 / Fold change vs veh, SLC12A2 / RFU, IBTK / Fold change vs veh, IBTK / RFU, ESF1 / Fold change vs veh, ESF1 / Fold change vs veh, TMEM50B / RFU, TAOK1 / Fold change vs veh, TAOK1 / RFU, ACBD3 / Fold change vs veh, ACBD3 / RFU, TMA16 / Fold change vs veh, TMA16 / RFU, RWDD3 / Fold change vs veh, RWDD3 / RFU, BCAT1 / Fold change vs veh, BCAT1 / RFU, EDEM3 / Fold change vs veh, EDEM3 / RFU, TMEM33 / Fold change vs veh, TMEM33 / RFU, WDR75 / Fold change vs veh, WDR75 / RFU, AHCTF1 / Fold change vs veh, AHCTF1 / RFU, TFRC / Fold change vs veh, TFRC / RFU, ZDHHC17 / Fold change vs veh, ZDHHC17 / RFU, NOM1 / Fold change vs veh, NOM1 / RFU, ARL8B / Fold change vs veh, ARL8B / RFU, ZBTB11 / Fold change vs veh, ZBTB11 / RFU, TAMM41 / Fold change vs veh, TAMM41 / RFU, KIAA1704 /// LOC100996395 / Fold change vs veh, KIAA1704 /// LOC100996395 / RFU, ING1 / Fold change vs veh, ING1 / RFU, TRMT61B / Fold change vs veh, TRMT61B / RFU, FUBP3 / Fold change vs veh, FUBP3 / RFU, TP53 / Fold change vs veh, TP53 / RFU, TNKS2 / Fold change vs veh, TNKS2 / RFU, ZFP14 / Fold change vs veh, ZFP14 / RFU, ACTR2 / Fold change vs veh, ACTR2 / RFU, PPP3R1 / Fold change vs veh, PPP3R1 / RFU, PIK3R1 / Fold change vs veh, PIK3R1 / RFU, HNRNPA1 / Fold change vs veh, HNRNPA1 / RFU, RNF170 / Fold change vs veh, RNF170 / RFU, ZNF28 / Fold change vs veh, ZNF28 / RFU, RNGTT / Fold change vs veh, RNGTT / RFU, OGT / Fold change vs veh, OGT / RFU, BRD1 / Fold change vs veh, BRD1 / RFU, MARS / Fold change vs veh, MARS / RFU, ZNF655 / Fold change vs veh, ZNF655 / RFU, FAHD1 / Fold change vs veh, FAHD1 / RFU, BDP1 / Fold change vs veh, BDP1 / RFU, LRRCC1 / Fold change vs veh, LRRCC1 / RFU, ARID1A / Fold change vs veh, ARID1A / RFU, ZNF146 / Fold change vs veh, ZNF146 / RFU, ZNF330 / Fold change vs veh, ZNF330 / RFU, GPN3 / Fold change vs veh, GPN3 / RFU, C9orf123 / Fold change vs veh, C9orf123 / RFU, N4BP2L2 / Fold change vs veh, N4BP2L2 / RFU, ARFIP1 / Fold change vs veh, ARFIP1 / RFU, FAM179B / Fold change vs veh, FAM179B / RFU, BCL10 / Fold change vs veh, BCL10 / RFU, UHRF1BP1L / Fold change vs veh, UHRF1BP1L / RFU, BET1 / Fold change vs veh, BET1 / RFU, CNOT2 / Fold change vs veh, CNOT2 / RFU, ZNF268 / Fold change vs veh, ZNF268 / Fold change vs veh, ZNF507 / RFU, DGCR2 / Fold change vs veh, DGCR2 / RFU, WDSUB1 / Fold change vs veh, WDSUB1 / Fold change vs veh, HSP90B1 /// MIR3652 / RFU, ADSS / Fold change vs veh, ADSS / RFU, GK / Fold change vs veh, GK / RFU, ZNF148 / Fold change vs veh, ZNF148 / RFU, TAF9 / Fold change vs veh, TAF9 / RFU, SLC1A5 / Fold change vs veh, SLC1A5 / RFU, SLMO2 / Fold change vs veh, SLMO2 / RFU, ABCC4 / Fold change vs veh, ABCC4 / RFU, LOC101060439 /// RAP1B / Fold change vs veh, LOC101060439 /// RAP1B / RFU, RFX7 / Fold change vs veh, RFX7 / RFU, GTPBP10 / Fold change vs veh, GTPBP10 / RFU, CNEP1R1 / Fold change vs veh, CNEP1R1 / RFU, BIVM-ERCC5 /// ERCC5 / Fold change vs veh, BIVM-ERCC5 /// ERCC5 / RFU, ILF3 / Fold change vs veh, ILF3 / RFU 11762660_at / Fold change /veh 11762660_at / RFU VCAN (11757783_s_at) / Fold change /veh VCAN (11757783_s_at) / RFU DDX43 (11728927_at) / Fold change /veh DDX43 (11728927_at) / RFU KRT8 (11758188_x_at) / Fold change /veh KRT8 (11758188_x_at) / RFU NKD1 (11759106_at) / Fold change /veh NKD1 (11759106_at) / RFU SRD5A1 (11742802_a_at) / Fold change /veh SRD5A1 (11742802_a_at) / RFU TPSAB1 /// TPSB2 (11721975_s_at) / Fold change /veh TPSAB1 /// TPSB2 (11721975_s_at) / RFU GSTM3 (11746129_a_at) / Fold change /veh GSTM3 (11746129_a_at) / RFU IL23R (11737362_x_at) / Fold change /veh IL23R (11737362_x_at) / RFU TMEM51 (11727254_a_at) / Fold change /veh TMEM51 (11727254_a_at) / RFU PIWIL2 (11732686_x_at) / Fold change /veh PIWIL2 (11732686_x_at) / RFU ORM1 (11744905_x_at) / Fold change /veh ORM1 (11744905_x_at) / RFU CCDC152 (11743942_at) / Fold change /veh CCDC152 (11743942_at) / RFU ECM1 (11717891_a_at) / Fold change /veh ECM1 (11717891_a_at) / RFU IL23R (11748794_a_at) / Fold change /veh IL23R (11748794_a_at) / RFU TNFAIP8L3 (11732012_x_at) / Fold change /veh TNFAIP8L3 (11732012_x_at) / RFU MBOAT4 (11741988_at) / Fold change /veh MBOAT4 (11741988_at) / RFU 11764193_at / Fold change /veh 11764193_at / RFU TMEM53 (11763286_at) / Fold change /veh TMEM53 (11763286_at) / RFU MAGEB2 (11727129_at) / Fold change /veh MAGEB2 (11727129_at) / RFU TMEM200A (11744735_a_at) / Fold change /veh TMEM200A (11744735_a_at) / RFU CCDC152 (11751479_a_at) / Fold change /veh CCDC152 (11751479_a_at) / RFU FAM211A (11726209_a_at) / Fold change /veh FAM211A (11726209_a_at) / RFU RGS16 (11746705_a_at) / Fold change /veh RGS16 (11746705_a_at) / RFU VCAN (11755009_s_at) / Fold change /veh VCAN (11755009_s_at) / RFU RHOB (11743442_s_at) / Fold change /veh RHOB (11743442_s_at) / RFU RGS16 (11720943_a_at) / Fold change /veh RGS16 (11720943_a_at) / RFU RGS16 (11720944_at) / Fold change /veh RGS16 (11720944_at) / RFU, VPS4B / Fold change vs veh, VPS4B / RFU, CREB1 / Fold change vs veh, CREB1 / RFU, DNAJC13 / Fold change vs veh, DNAJC13 / RFU, GNAQ / Fold change vs veh, GNAQ / RFU, CDK5R1 / Fold change vs veh, CDK5R1 / RFU, ZRANB3 / Fold change vs veh, ZRANB3 / RFU, CUL4A / Fold change vs veh, CUL4A / RFU, CCNY / Fold change vs veh, CCNY / RFU, UFL1 / Fold change vs veh, UFL1 / RFU, COG3 / Fold change vs veh, COG3 / RFU, DIAPH2 / Fold change vs veh, DIAPH2 / RFU, SKA2 / Fold change vs veh, SKA2 / RFU, AFF3 / Fold change vs veh, AFF3 / RFU, LMF1 / Fold change vs veh, LMF1 / RFU, IPO11 / Fold change vs veh, IPO11 / RFU, DFFB / Fold change vs veh, DFFB / RFU, FOXP1 / Fold change vs veh, FOXP1 / RFU, CARD8 / Fold change vs veh, CARD8 / RFU, STRN3 / Fold change vs veh, STRN3 / RFU, ADK / Fold change vs veh, ADK / RFU, RASSF2 / Fold change vs veh, RASSF2 / RFU, WIPF1 / Fold change vs veh, WIPF1 / RFU, LARP1B / Fold change vs veh, LARP1B / RFU, RASA1 / Fold change vs veh, RASA1 / RFU, RB1 / Fold change vs veh, RB1 / RFU, PPFIA1 / Fold change vs veh, PPFIA1 / RFU, MAT2A / Fold change vs veh, MAT2A / RFU, CCT5 / Fold change vs veh, CCT5 / RFU, WDR92 / Fold change vs veh, WDR92 / RFU, CUX1 / Fold change vs veh, CUX1 / RFU, TTC7A / Fold change vs veh, TTC7A / RFU, TMEM135 / Fold change vs veh, TMEM135 / RFU, DEPTOR / Fold change vs veh, DEPTOR / RFU, CPM / Fold change vs veh, CPM / RFU, DNAJB6 / Fold change vs veh, DNAJB6 / RFU, CACNA2D3 / Fold change vs veh, CACNA2D3 / RFU, DTX4 / Fold change vs veh, DTX4 / RFU, TFCP2 / Fold change vs veh, TFCP2 / RFU, GMCL1 /// GMCL1P1 / Fold change vs veh, GMCL1 /// GMCL1P1 / RFU, AEBP2 / Fold change vs veh, AEBP2 / RFU, SNHG1 /// SNORD22 /// SNORD25 /// SNORD26 /// SNORD27 /// SNORD28 /// SNORD29 /// SNORD31 / Fold change vs veh, SNHG1 /// SNORD22 /// SNORD25 /// SNORD26 /// SNORD27 /// SNORD28 /// SNORD29 /// SNORD31 / Fold change (Aza/veh), C12orf56 (ProbeSet 11735607_a_at) / Fold change (ACY-1035/veh), C12orf56 (ProbeSet 11735607_a_at) / Fold change (Aza/veh), FGFR1OP (ProbeSet 11751329_s_at) / Fold change (ACY-1035/veh), FGFR1OP (ProbeSet 11751329_s_at) / Fold change (Aza/veh), VPS36 (ProbeSet 11739960_a_at) / Fold change (ACY-1035/veh), VPS36 (ProbeSet 11739960_a_at) / RFU SYPL1 (11715823_x_at) / Fold change /veh SYPL1 (11715823_x_at) / RFU IGFBP7 (11715501_s_at) / Fold change /veh IGFBP7 (11715501_s_at) / RFU REEP3 (11722064_at) / Fold change /veh REEP3 (11722064_at) / RFU IGLL1 (11728026_x_at) / Fold change /veh IGLL1 (11728026_x_at): dose or concentration left out as unconfirmed
Conditions: MV-4-11 cells, 48 hours

Nc1ncn([C@@H]2O[C@H](CO)[C@@H](O)[C@H]2O)c(=O)n1 [azacitidine]
RFU RASL12 (11751679_a_at): 15.38 RFU
